Measurements as given in patent US20100210649A1, “PYRIDAZINONES AND FURAN-CONTAINING COMPOUNDS” (Sloan-Kettering Institute for Cancer Research, priority 2006, published 2010).
“And” between values parts separate entries of the source, which are not always exact repeats. Equal entries are not always repeated. Where two headings read alike, the source gives them in different places.

How the values were obtained:
PC9 = test: Dose response study (Alamar Blue), PC9; format: cell-based; settings: Homo sapiens, read-out: IC50 PC9
Procedure: (§1) Dose response studies against 34 compounds from the pyridazinone and phenylfuran-carboxamide class were conducted. […] In addition, Tarceva was included in these dose response studies.
(§2) The dose response studies were done with the following standard procedure. First, the cells were counted and dispensed at 250 cells/well into 384-well microplates with compound. The cells were incubated for 48 hours at 37 C to complete treatment, and then alamar blue was added for an additional 48 hours. Finally, alamar blue reduction was measured and the data was loaded into ORIS, our data screening acquisition platform.

H3255 = test: Non Small Cell Lung Cancer proliferation assay (Alamar Blue reduction), H3255; format: cell-based, human; settings: for inhibition at 10 µM: NCI-H3255, primary screening, read-out: PRIMARY HTS [%] H3255 (percentage inhibition); for inhibition at 10 µM / CONFIRMATION [%] 3255: 10 μM compound in 1% DMSO (v/v); for CONFIRMATION [%] 3255: percentage inhibition
Procedure, shortened: (§3)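 Proliferation after 48 h compound exposure (1% DMSO final, 37 °C) was read by Alamar Blue reduction over an additional 48 h, fluorescence at 530 nm excitation/590 nm emission. Dose-response runs seeded 250 cells/well; DMSO-only wells as high control.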

[1] = system: HPL1D (human peripheral lung epithelial) cell line; test: Cell proliferation / dose response (Alamar Blue), HPL1D; format: cell-based; settings: read-out: IC50 HPL1D
Procedure: WI-38: human lung fibroblast cell line. […] WT: wildtype; WT*: over-expressed wildtype. Dose response studies against 34 compounds from the pyridazinone and phenylfuran-carboxamide class were conducted. […] In addition, Tarceva was included in these dose response studies. The dose response studies were done with the following standard procedure. […] The cells were incubated for 48 hours at 37 C to complete treatment, and then alamar blue was added for an additional 48 hours. Finally, alamar blue reduction was measured and the data was loaded into ORIS, our data screening acquisition platform.

H1650 = test: Non Small Cell Lung Cancer proliferation assay (Alamar Blue reduction), H1650; format: cell-based, human; settings: for inhibition at 10 µM: NCI-H1650, primary screening, read-out: PRIMARY HTS [%] H1650 (percentage inhibition); for inhibition at 10 µM / CONFIRMATION [%] 1650: 10 μM compound in 1% DMSO (v/v); for CONFIRMATION [%] 1650: percentage inhibition
Procedure, shortened: as §3

H460 = test: Dose response study (Alamar Blue), H460; format: cell-based; settings: Homo sapiens, read-out: IC50 H460
Procedure: as §1, §2

H1734 = test: Non Small Cell Lung Cancer proliferation assay (Alamar Blue reduction), H1734; format: cell-based, human; settings: Homo sapiens
Procedure, shortened: as §3

H23 = test: Dose response study (Alamar Blue), H23; format: cell-based; settings: Homo sapiens, read-out: IC50 H23
Procedure: as §1, §2

A549 = test: Dose response study (Alamar Blue), A549; format: cell-based; settings: Homo sapiens, read-out: IC50 A549
Procedure: as §1, §2

H820 = test: Dose response study (Alamar Blue), H820; format: cell-based; settings: Homo sapiens, read-out: IC50 H820
Procedure: as §1, §2

H2122 = test: Dose response study (Alamar Blue), H2122; format: cell-based; settings: Homo sapiens, read-out: IC50 H2122
Procedure: as §1, §2

[2] = PC-9, PC9, 12 point doubling dilution 10 uM to 5 nM, 48 h treatment, alamar blue additional 48 h
[3] = Homo sapiens, NCI-H3255, 48 h, H3255, 12 point doubling dilution 10 uM to 5 nM, 48 h treatment, alamar blue additional 48 h, read-out: IC50 H3255
[4] = Homo sapiens, NCI-H3255, dose response 10 M to 5 nM, IC50, read-out: Dose Response (uM) H3255
[5] = HPL1D, 12 point doubling dilution 10 uM to 5 nM, 48 h treatment, alamar blue additional 48 h
[6] = Homo sapiens, NCI-H1650, 48 h, H1650, 12 point doubling dilution 10 uM to 5 nM, 48 h treatment, alamar blue additional 48 h, read-out: IC50 H1650
[7] = Homo sapiens, NCI-H1650, dose response 10 M to 5 nM, IC50, read-out: Dose Response (uM) H1650
[8] = NCI-H460, H460, 12 point doubling dilution 10 uM to 5 nM, 48 h treatment, alamar blue additional 48 h
[9] = NCI-H1734, H1734, 12 point doubling dilution 10 uM to 5 nM, 48 h treatment, alamar blue additional 48 h, read-out: IC50 H1734
[10] = NCI-H1734, read-out: Dose Response (uM) H1734
[11] = NCI-H23, H23, 12 point doubling dilution 10 uM to 5 nM, 48 h treatment, alamar blue additional 48 h
[12] = A549, 12 point doubling dilution 10 uM to 5 nM, 48 h treatment, alamar blue additional 48 h
[13] = NCI-H820, H820, 12 point doubling dilution 10 uM to 5 nM, 48 h treatment, alamar blue additional 48 h
[14] = NCI-H2122, H2122, 12 point doubling dilution 10 uM to 5 nM, 48 h treatment, alamar blue additional 48 h
[15] = Homo sapiens, NCI-H3255, phenylfuran-2-carboxamide SAR summary, read-out: IC50(uM) 3255
[16] = Homo sapiens, NCI-H1650, phenylfuran-2-carboxamide SAR summary, read-out: IC50(uM) 1650
[17] = NCI-H1734, 48 h, H1734, 12 point doubling dilution 10 uM to 5 nM, 48 h treatment, alamar blue additional 48 h, read-out: IC50 H1734

| SMILES | IC50 (PC9; [2]) [µM] | IC50 (H3255; [3]) [µM] | IC50 (H3255; [4]) [µM] | IC50 [1, 5] [µM] | IC50 (H1650; [6]) [µM] | IC50 (H1650; [7]) [µM] | IC50 (H460; [8]) [µM] | IC50 (H1734; [9]) [µM] | IC50 (H1734; [10]) [µM] | IC50 (H23; [11]) [µM] | IC50 (A549; [12]) [µM] | IC50 (H820; [13]) [µM] | IC50 (H2122; [14]) [µM] | also measured |
| --- | --- | --- | --- | --- | --- | --- | --- | --- | --- | --- | --- | --- | --- | --- |
| O=c1c(Cl)c(Cl)cnn1-c1ccc2c(c1)CCC2 [compound 267066] | 5.87 | 4.61 | 1.35 | 1.66 | > 10 | 1.69 | 6.56 | 8.85 | 1.45 | 2.04 | 7.52 | 2.8 | 8.72 | – |
| CCCCc1cccc(-n2ncc(Cl)c(Cl)c2=O)c1 [compound 267063] | 8.89 | 8.35 | 3.89 | 7.04 | > 10 | 5.82 | > 10 | > 10 | 3.25 | 5.47 | > 10 | 6.24 | > 10 | – |
| O=c1c(Cl)c(Cl)cnn1-c1ccc(Cl)cc1Cl [compound 267077] | > 10 | 8.75 | – | 4.95 | > 10 | 0.56 | > 10 | > 10 | 0.52 | 1.72 | > 10 | 2.68 | > 10 | – |
| O=c1c(Br)c(Br)cnn1-c1ccccn1 [compound 267073] | 0.42 | 0.45 | 0.66 | 0.11 | 0.79 | 0.8 | 0.42 | 1.23 | 0.72 | 0.07 | 0.31 | 0.1 | 0.78 | – |
| Cc1ccc(-n2ncc(Cl)c(Cl)c2=O)cc1 [compound 257016] | 1.13 | 1.53 | 1.32 | 0.48 | 2.49 | 2.73 | 2.55 | 3.22 | 3.37 | 0.32 | 2.63 | 0.37 | 2.07 | – |
| Cc1cc(-n2ncc(Cl)c(Cl)c2=O)ccc1Br [compound 267064] | > 10 | > 10 | 2.47 | 4.72 | > 10 | 2.83 | > 10 | > 10 | 1.21 | 5.75 | > 10 | 6.72 | > 10 | – |
| Cc1cccc(-n2ncc(I)c(I)c2=O)c1 [compound 267085] | 2.24 | 2.13 | 0.71 | 0.68 | 3.16 | 1.93 | 3.49 | 2.99 | 1.94 | 0.72 | 3.27 | 0.41 | 2.34 | – |
| Cc1cccc(NC(=O)c2ccc([N+](=O)[O-])o2)c1 [compound 71762] | 1.89 | 2.41 | – | > 10 | 0.63 | – | 1.85 | 4.88 | – | 0.83 | 1.46 | 3.61 | 4.83 | IC50 (H3255; [15]): 0.95 µM; inhibition at 10 µM (H3255; Homo sapiens, H3255): 100%; CONFIRMATION [%] 3255 (H3255): 122% and 97%; IC50 (H3255; phenylfuran-2-carboxamide SAR summary, read-out: IC50(uM) 3255): 1.01 µM; IC50 (H1650; [16]): 0.43 µM; inhibition at 10 µM (H1650; Homo sapiens, H1650): 104%; CONFIRMATION [%] 1650 (H1650): 135% and 106%; IC50 (H1650; phenylfuran-2-carboxamide SAR summary, read-out: IC50(uM) 1650): 0.41 µM |
| O=c1c(Cl)c(Cl)cnn1-c1ccccc1 [compound 257014] | – | 1.5 | 1.36 | – | 1.64 | 3.18 | – | – | – | – | – | – | – | IC50 (PC9; PC-9, 48 h): 0.83 µM; IC50 ([1]; 48 h): 0.38 µM; IC50 (H460; NCI-H460, 48 h): 2.01 µM; IC50 (H1734; [17]): 2.28 µM; IC50 (H1734; NCI-H1734, dose response 10 M to 5 nM, IC50, read-out: Dose Response (uM) H1734): 4.11 µM; IC50 (H23; NCI-H23, 48 h): 0.26 µM; IC50 (A549; A549, 48 h): 1.68 µM; IC50 (H820; NCI-H820, 48 h): 0.24 µM; IC50 (H2122; NCI-H2122, 48 h): 1.16 µM |
| Cc1cc(-n2ncc(Cl)c(Cl)c2=O)ccc1Cl [compound 267065] | > 10 | > 10 | > 10 | 6.66 | > 10 | > 10 | > 10 | > 10 | > 10 | 6.96 | > 10 | > 10 | > 10 | – |
| O=c1c(Cl)c(Cl)cnn1-c1ccccn1 [compound 267090] | 0.47 | 0.7 | 0.5 | 0.17 | 1.42 | 1.29 | 0.79 | 2.47 | 1.1 | 0.08 | 0.54 | 0.14 | 0.89 | – |
| Cc1ccc(-n2ncc(Cl)c(Cl)c2=O)cc1Cl [compound 267070] | > 10 | > 10 | 3.1 | > 10 | > 10 | > 10 | > 10 | > 10 | 2.69 | > 10 | > 10 | > 10 | > 10 | – |
| Cc1nc2cc(-n3ncc(Cl)c(Cl)c3=O)ccc2s1 [compound 267067] | > 10 | > 10 | 3.64 | 7.01 | > 10 | 4.47 | > 10 | > 10 | 2.57 | 5.68 | > 10 | 8.25 | > 10 | – |
| COCCOc1cccc(-n2ncc(Br)c(Br)c2=O)c1 [compound 267084] | 0.68 | 0.71 | 0.38 | 0.18 | 1.04 | 1.51 | 0.89 | 1.5 | 1.63 | 0.17 | 0.84 | 0.18 | 1.12 | – |
| Cc1ccc(NC(=O)c2ccc([N+](=O)[O-])o2)cc1 [compound 98697] | – | 2.72 | – | – | 0.6 | – | – | – | – | – | – | – | – | IC50 (PC9; PC-9, 48 h): 2.17 µM; IC50 (H3255; [15]): 0.91 µM; inhibition at 10 µM (H3255; Homo sapiens, H3255): 83%; CONFIRMATION [%] 3255 (H3255): 130%; IC50 ([1]; 48 h): > 10 µM; IC50 (H1650; [16]): 0.44 µM; inhibition at 10 µM (H1650; Homo sapiens, H1650): 103%; CONFIRMATION [%] 1650 (H1650): 136%; IC50 (H460; NCI-H460, 48 h): 2.2 µM; IC50 (H1734; [17]): 4.42 µM; IC50 (H23; NCI-H23, 48 h): 0.91 µM; IC50 (A549; A549, 48 h): 1.81 µM; IC50 (H820; NCI-H820, 48 h): 3.53 µM; IC50 (H2122; NCI-H2122, 48 h): 5.2 µM |
